The source of these data is paper PMC8125234, “Cardiolipin Stabilizes and Increases Catalytic Efficiency of Carnitine Palmitoyltransferase II and Its Variants S113L, P50H, and Y479F” (International Journal of Molecular Sciences, 2021).

Changes are numbered by the printed parent chain. Where two headings read alike, the source gives them in different places.

What all share (assay type): biochemical
Test [1] addresses T1, CPT II variant P50H (Homo sapiens, UniProt P23786, P50H).
T1 construct: made in house; host or cells: Escherichia coli BL21Gold DE
T1 sequence (P23786 26-658 P50H): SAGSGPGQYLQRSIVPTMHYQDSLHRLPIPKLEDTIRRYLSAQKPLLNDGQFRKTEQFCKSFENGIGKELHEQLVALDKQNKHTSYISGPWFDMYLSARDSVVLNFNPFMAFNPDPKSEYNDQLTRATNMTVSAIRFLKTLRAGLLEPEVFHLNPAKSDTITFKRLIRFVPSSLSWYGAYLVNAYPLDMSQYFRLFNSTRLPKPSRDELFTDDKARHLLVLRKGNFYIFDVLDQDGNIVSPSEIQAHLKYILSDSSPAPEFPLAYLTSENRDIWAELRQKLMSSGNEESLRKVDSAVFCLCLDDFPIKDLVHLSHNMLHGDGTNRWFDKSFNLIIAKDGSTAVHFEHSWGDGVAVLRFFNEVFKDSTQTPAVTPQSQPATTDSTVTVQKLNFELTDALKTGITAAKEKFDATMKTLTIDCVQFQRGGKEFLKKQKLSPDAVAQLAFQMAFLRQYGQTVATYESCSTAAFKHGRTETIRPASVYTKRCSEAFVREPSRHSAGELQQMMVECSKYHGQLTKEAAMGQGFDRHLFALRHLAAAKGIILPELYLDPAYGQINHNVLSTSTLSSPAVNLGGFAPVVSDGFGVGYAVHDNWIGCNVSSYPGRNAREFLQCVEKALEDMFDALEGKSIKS
The test can be described thus: Determination of the kinetic parameters kcat and KM. The conditions noted are these: palmitoyl-CoA varied, 25 °C. As for the experimental part:
(§1) Before activity measurements, the storage buffer of the enzymes was replaced with assay buffer (50 mM KH2PO4, 120 mM KCl, 1 mM EDTA-Na4) using vivaspin turbo 4 tubes (Satorius Stedim biotech GmbH, Göttingen, Germany) at 4 °C. The pH of assay buffer was adjusted with KOH to 7.4. The storage buffer was diluted at least 1:500 in assay buffer. In addition, before each experimental set up, the protein samples were centrifuged at 16,000× g for 5 min at 4 °C to remove any micro-aggregates. After that, the protein concentration was determined using bicinchoninic acid (BCA) protein assay kit (Thermo Fisher Scientific GmbH, Berlin, Germany). The enzyme activity of recombinant CPT II was performed following Rufer et al. with modifications described elsewhere. […] After pre-conditioning the mixture to 25 °C for 2 min, the reaction was started by adding 15 nM of recombinant enzyme. The reverse reaction of CPT II was detected with the enzyme activity assay. CPT II catalyzed the transfer of fatty acid residue from Pal-CoA to L-carnitine with release of CoA and Pal-carnitine. The released CoA was then detected by the reaction of the free thiol group with DTNB, forming 5-mercapto-(2-nitrobenzoic acid). This compound has a molar extinction coefficient of 13,600 M^−1 cm^−1 at a wavelength of 410 nm, and its formation was followed spectroscopically. […] The slope of the progress curve was used to determine the reaction velocity.
(§2) It is assumed that the reaction catalyzed by CPT II represents a ping-pong mechanism or compulsory order ternary-complex mechanism.
(§3) The kinetic parameters were determined by evaluating the obtained v/S characteristic according to the Michaelis–Menten Equation (1). The […] kcat was calculated using Equation (2):(1) v=Vmax∗[S]/KM+[S] (2) kcat=Vmax/cenzyme

Test [2] has as its target T2, CPT II variant S113L (Homo sapiens, UniProt P23786, S113L).
T2 construct: made in house; host or cells: Escherichia coli BL21Gold DE
T2 sequence (P23786 26-658 S113L): T1 sequence (P23786 26-658 P50H) with H25P, S88L
Described as above. To be noted: palmitoyl-CoA varied, 25 °C. As to the method: as §1, §2, §3

Test [3] deals with T3, CPT II variant Y479F (Homo sapiens, UniProt P23786, Y479F).
T3 construct: made in house; host or cells: Escherichia coli BL21Gold DE
T3 sequence (P23786 26-658 Y479F): T1 sequence (P23786 26-658 P50H) with H25P, Y454F
The test is described as above. To be noted: palmitoyl-CoA varied, 25 °C. As to the method: as §1, §2, §3

Test [4] concerns the target T4, CPT II WT (Homo sapiens, UniProt P23786).
T4 construct: made in house; host or cells: Escherichia coli BL21Gold DE
T4 sequence (P23786 26-658): T1 sequence (P23786 26-658 P50H) with H25P
Described as above. The conditions noted are these: palmitoyl-CoA varied, 25 °C. As to the method:
as §1, §2, §3

Test [5] concerns the target T1, CPT II variant P50H. The test can be described thus: Determination of inhibition constant Ki for R-amino carnitine (DTNB enzyme activity assay). To be noted: 25 °C. As to the method: as §1
(§4) The inhibition constant Ki for the competitive inhibitor R-amino carnitine was determined using various concentrations (R-AC, 0, 0.25 and 0.5 mM). A concentration series of L-carnitine in the enzyme assay was used (0–200 mM) while the concentration of Pal-CoA remained constant at 30 µM. Experiments were performed at least three times independently as double determination.
(§5) The values for Ki were calculated on the basis of the obtained KM values, the Michaelis–Menten constant of the inhibited reaction KMi and the inhibitor concentration using the following equation [45]:(3) KMi=(1+[I]/ Ki)KM (4) Ki=KM·[I]/KMi−KM

Test [6] concerns the target T2, CPT II variant S113L. Described as above. The conditions noted are these: 25 °C. As to the method: as §1, §4, §5
The target in test [7] is T3, CPT II variant Y479F. The description is as above. The conditions noted are these: 25 °C. As to the method:
as §1, §4, §5

The target in test [8] is T4, CPT II WT. Described as above. The conditions noted are these: 25 °C. As to the method:
as §1, §4, §5

Where [9] appears, read: 0.25 mM CL, read-out: Inhibition Constant Ki in Presence of CL.
The mark [10] stands for this setting: absence of CL, read-out: Inhibition Constant Ki in Absence of CL.

What is called Km is the substrate concentration at which the rate is half of its maximum. As usually defined, the kcat is the maximal rate divided by the concentration of active sites. Usually Ki stands for the dissociation constant of the complex between target and ligand, obtained from inhibition or displacement.

For the compound `CCCCCCCCCCCCCCCC(=O)SCCNC(=O)CCNC(=O)[C@H](O)C(C)(C)COP(=O)(O)OP(=O)(O)OC[C@H]1O[C@@H](n2cnc3c(N)ncnc32)[C@H](O)[C@@H]1OP(=O)(O)O` [palmitoyl-CoA, Palmitoyl-Coenzyme A], the Km at CPT II variant P50H [1] (0.25 mM CL) is 6.7 ± 1.8 µM; at CPT II variant P50H [1] (absence of CL), 5.5 ± 1.4 µM; at CPT II variant S113L [2] (0.25 mM CL), 12.3 ± 3 µM; on CPT II variant S113L [2] (absence of CL), 11 ± 3.6 µM; at CPT II variant Y479F [3] (0.25 mM CL), 6.7 ± 0.3 µM; at CPT II variant Y479F [3] (absence of CL), 5.1 ± 2.3 µM. Also, the Michaelis-Menten constant (Km) on CPT II WT [4] (0.25 mM CL) was 6.7 ± 1.1 µM; on CPT II WT [4] (absence of CL) it was 7.1 ± 1.1 µM. Besides, the kcat on CPT II variant P50H [1] (0.25 mM CL) was found to be 138.2 ± 8.4 s⁻¹; at CPT II variant P50H [1] (absence of CL), 144.3 ± 18 s⁻¹; at CPT II variant S113L [2] (0.25 mM CL) it was 145.8 ± 0.9 s⁻¹; on CPT II variant S113L [2] (absence of CL), 142.1 ± 25 s⁻¹; at CPT II variant Y479F [3] (0.25 mM CL), 144.8 ± 13 s⁻¹; on CPT II variant Y479F [3] (absence of CL), 141.4 ± 1.7 s⁻¹. The kcat stood at 145.3 ± 9.0 s⁻¹ on CPT II WT [4] (0.25 mM CL) and 144.7 ± 3.1 s⁻¹ at CPT II WT [4] (absence of CL).

Take `C[N+](C)(C)C[C@H](N)CC(=O)[O-]` [R-amino carnitine, R-Aminocarnitine]: the inhibition constant Ki is 46 ± 6 µM on CPT II variant P50H [5] (setting [9]); 134 ± 11 µM on CPT II variant P50H [5] (setting [10]); 36 ± 16 µM at CPT II variant S113L [6] (setting [9]); 173 ± 20 µM at CPT II variant S113L [6] (setting [10]); 108 ± 39 µM on CPT II variant Y479F [7] (setting [9]); 756 ± 62 µM on CPT II variant Y479F [7] (setting [10]). Also, the Ki on CPT II WT [8] (setting [9]) amounted to 105 ± 2 µM; at CPT II WT [8] (setting [10]), 493 ± 4 µM.
